Laboratory results from patent US5187277A, “DL-3-[4-[4-(2-pyridyl)-1-piperazinyl]-butyl]-1,8,8-trimethyl-3-az abicyclo[(3]octane-2,4-dione having psychotropic and antiemetic effect” (priority 1990, dated 1993).
Structures can show the parent of a compound that is named as a salt. Where two headings read alike, the source gives them in different places.

Experiments:
[1] = myorelaxation activity, rotating rod test; type: in vivo; settings: for ED50: ip, read-out: Myorelaxation activity ED50
[2] = hexobarbital-potentiation effect (narcosepotentiation, nonnarcotic dose of hexobarbital); type: in vivo; settings: for ED50: read-out: Hexobarbital-potentiation effect ED50
[3] = test system: pigeons; assay: antiemetic activity, vomiting caused by cisplatin in pigeons; type: in vivo; settings: Columbidae, ip, read-out: Antiemetic activity, ED50
Procedure: (§1) The compounds were introduced intraperitoneally and orally 20-60 minutes before the beginning of the test. The minimum effective doses (MED) increasing the number of water takings and increasing the period of staying in an illuminated area by at least 50%, were determined. The neuroleptic activity was detected and measured using the "rat fight" method and the "climbing" test of mice (P. Protais et al. Psychopharmacology, 50, p. 1, 1976). […] The antiemetic effect on vomiting caused by apomorphine or cisplatin was studied in pigeons (P. Presiosi et al., Arch. Int. Pharmacodyn., 298, p. 301, 1989) and mongrel dogs having a weight of 6-8 kg.

[4] = test system: pigeons; assay: antiemetic activity, vomiting caused by apomorphine in pigeons; type: in vivo; settings: for ED50: Columbidae, ip, read-out: Antiemetic activity, ED50
Procedure: as §1

[5] = test system: rat; assay: antiaggressive activity ("rat fight" method); type: in vivo; settings: for ED50: Rattus norvegicus, read-out: Antiaggressive activity ED50
Procedure: as §1

[6] = in vivo; settings: ip
[7] = test system: rats (avoiding illuminated area tests); assay: anxiolytic activity by the method of avoiding illuminated areas; type: in vivo; settings: for minimal effective dose: Rattus norvegicus, read-out: Anxiolytic activity MED in "avoiding illuminated area" tests
Procedure: as §1

[8] = test system: rats (conflict tests); assay: anxiolytic activity in conflict situation model; type: in vivo; settings: for minimal effective dose: Rattus norvegicus, read-out: Anxiolytic activity MED in conflict tests
Procedure: as §1

[9] = sedative activity, suppression of motor activity (spontaneous locomotion); type: in vivo; settings: for ED50: ip, read-out: Sedative activity ED50, suppression of motor activity
[10] = test system: mice; assay: antiapomorphine activity in "climbing" test of mice; type: in vivo; settings: for ED50: Mus musculus, ip, read-out: Antiapomorphine activity in "climbing" test ED50
Procedure: as §1

[11] = test system: mongrel dogs; assay: antiemetic activity, vomiting caused by apomorphine in dogs; type: in vivo; settings: Canis lupus familiaris; dog tests
Procedure: as §1

[12] = test system: mongrel dogs; assay: antiemetic activity, vomiting caused by cisplatin in dogs; type: in vivo; settings: Canis lupus familiaris; dog tests
Procedure: as §1

[13] = effect characteristic of tranquilizers and neuroleptics (anxiolytic, antiaggressive, antiapomorphine and hexobarbital-potentiation effects); type: in vivo; settings: systematic application of dihydrochloride
Procedure: as §1

[14] = from Table 2
[15] = cataleptogenic (extrapyramidic) activity; settings: in vivo
[16] = sedative activity, suppression of orientation behaviour; type: in vivo; settings: ip, read-out: Sedative activity ED50, suppression of orientation behaviour
[17] = pigeons, vomiting caused by cisplatin, i/p
[18] = pigeons, vomiting caused by apomorphine, i/p
[19] = ip, rats, i/p, minimum effective dose increasing period of staying in illuminated area by at least 50%
[20] = po, rats, orally, minimum effective dose increasing period of staying in illuminated area by at least 50%
[21] = ip, rats, i/p, minimum effective dose increasing number of water takings by at least 50%, dihydrochlorides of I, VI, VII
[22] = po, rats, orally, minimum effective dose increasing number of water takings by at least 50%, dihydrochlorides of I, VI, VII

In the case of CC12CCC(C(=O)N(CCCCN3CCN(c4ccccn4)CC3)C1=O)C2(C)C (racemic) [Compound I, DL-3-[4-[4-(2-pyridyl)-1-piperazinyl]-butyl]-1,8,8-trimethyl-3-azabicyclo[3,2,1]octane-2,4-dione dihydrochloride], the “myorelaxation activity compared with diazepame” value ([1]; from Table 2) is reported as “much lower than the activity and toxicity of diazepame”, the ED50 ([1]; i/p) is reported as 44.5 ± 10 mg/kg and the “hexobarbital-potentiating activity compared with diazepame” value ([2]; in vivo) is reported as “essentially lower than the activity of diazepame”. It also gave an ED50 ([2]; ip, i/p) of 17.6 ± 2.9 mg/kg, an ED50 ([2]; po, orally) of 12.5 ± 3.14 mg/kg and an ED50 [3, 17] of 0.4 ± 0.07 mg/kg. For the same compound, the ED50 [4, 18] was 0.11 ± 0.02 mg/kg, the “antiemetic effect relative to all comparable compounds (haloperidol, triphthazine, metoclopramide)” value ([4]; fold, versus haloperidol, triphthazine, metoclopramide, emetogen not specified (apomorphine or cisplatin)) was 10-100 times and the “antiemetic and antiapomorphine activities compared with other compounds” value ([4]; pigeons, from Table 3) was “substantially higher than those of other compounds”. The ED50 ([5]; ip, i/p) was 7.45 ± 1.6 mg/kg, the ED50 ([5]; po, orally) was 30.8 ± 4.14 mg/kg and the “antiaggressive activity relative to buspirone and bicyclic imides” value ([5]; antiaggressive test) was “two to four times as large”. For the same compound, the LD50 [6] was 208 ± 20 mg/kg, the minimal effective dose [7, 19] was 1 mg/kg and the minimal effective dose [7, 20] was 10 mg/kg. The “anxiolytic activity relative to compounds VI, VII” value ([7]; two anxiety models, intraperitoneally, avoiding illuminated area) was “three times as large”, the minimal effective dose [8, 21] was 1 mg/kg and the minimal effective dose [8, 22] was 3 mg/kg. The “antianxiety activity relative to buspirone and said bicyclic imides” value ([8]; conflict situation model) was “three times as large”, the “anxiolytic doses compared with diazepame” value ([8]; intraperitoneally) was “coincide with the similar doses of diazepame” and the “anxiolytic activity relative to compounds VI, VII” value ([8]; two anxiety models, intraperitoneally, conflict test) was “three times as large”. For the same compound, the “sedative activity compared with diazepame” value ([9]; from Table 2) was “much lower than the activity and toxicity of diazepame”, the ED50 ([9]; i/p) was 2.8 ± 0.7 mg/kg and the ED50 ([10]; mice, i/p) was 0.7 ± 0.13 mg/kg. The “climbing test activity relative to buspirone and bicyclic imides” value ([10]; climbing test) was “two to four times as large”, the “apomorphine antagonism in "climbing" test compared with haloperidol” value ([10]; mouse, in vivo) was “comparable to haloperidol” and the ED50 [11] was 0.02 ± 0.006 mg/kg. The ED50 [12] was 0.013 ± 0.005 mg/kg, the “dose range producing anxiolytic, antiaggressive, antiapomorphine and hexobarbital-potentiation effects” value [13] was 0.1-50 mg/kg of a body weight and the “toxicity compared with diazepame” value [14] was “much lower than the activity and toxicity of diazepame”. For the same compound, the “cataleptogenic (extrapyramidic) activity” value [15] was “free of cataleptogenic (extrapyramidic) activity” and the ED50 ([16]; i/p) was 3.9 ± 0.9 mg/kg.
O=C1CC2(CCCC2)CC(=O)N1CCCCN1CCN(c2ncccn2)CC1 [VI, 8-[4-[4-(2-pyrimidinyl)-1-piperazinyl]butyl]-8-azaspiro[4,5]decane-7 ,9-dione] gave an ED50 ([1]; i/p) of 54.2 ± 8.1 mg/kg, an ED50 ([2]; ip, i/p) of 8.2 ± 2.4 mg/kg and an LD50 [6] of 140 ± 20 mg/kg. The minimal effective dose [7, 19] was 3 mg/kg, the minimal effective dose [8, 21] was 3 mg/kg and the ED50 ([9]; i/p) was 8.7 ± 1.8 mg/kg. For the same compound, the ED50 ([10]; mice, i/p) was 2.6 ± 0.46 mg/kg and the ED50 ([16]; i/p) was 7.6 ± 1.9 mg/kg.
CN1CCN(CCCN2c3ccccc3Sc3ccc(C(F)(F)F)cc32)CC1 [Trifluoperazine] gave an ED50 [3, 17] of 5.5 ± 0.9 mg/kg and an ED50 [4, 18] of 4.6 ± 0.8 mg/kg.
With O=C(CCCN1CCC(O)(c2ccc(Cl)cc2)CC1)c1ccc(F)cc1 [Haloperidol] the ED50 [3] was 4.4 ± 0.9 mg/kg, the ED50 [4] was 3.4 ± 0.5 mg/kg and the minimal effective dose ([8]; ip) was > 3 mg/kg. For the same compound, the ED50 [10] was 0.67 ± 0.06 mg/kg.
CC12CCC(C(=O)N(CCCCN3CCN(c4ncccn4)CC3)C1=O)C2(C)C (racemic) [VII, DL-3-[4-(2-pyrimidinyl)-1-piperazinyl]-butyl]-1,8,8-trimethyl-3azabic yclo[3,2,1]octane-2,4-dione] showed an ED50 ([1]; i/p) of 52.5 ± 12 mg/kg, an ED50 ([2]; ip, i/p) of 11.9 ± 2.2 mg/kg and an ED50 ([2]; po, orally) of 36.5 ± 8.11 mg/kg. The ED50 [3, 17] was 4.6 ± 0.8 mg/kg, the ED50 [4, 18] was 1.8 ± 0.4 mg/kg and the ED50 ([5]; ip, i/p) was 28.5 ± 4.2 mg/kg. The ED50 ([5]; po, orally) was 81.5 ± 8.3 mg/kg, the LD50 [6] was 211 ± 31 mg/kg and the minimal effective dose [7, 19] was 3 mg/kg. The minimal effective dose [7, 20] was 10 mg/kg, the minimal effective dose [8, 21] was 3 mg/kg and the minimal effective dose [8, 22] was 3 mg/kg. For the same compound, the ED50 ([9]; i/p) was 5.4 ± 2.3 mg/kg, the ED50 ([10]; mice, i/p) was 1.31 ± 0.15 mg/kg and the ED50 ([16]; i/p) was 7.7 ± 1.6 mg/kg.
CCN(CC)CCNC(=O)c1cc(Cl)c(N)cc1OC [Metoclopramide] showed an ED50 [3, 17] of 9.7 ± 1.1 mg/kg and an ED50 [4, 18] of 12 ± 1.7 mg/kg.
For CN1C(=O)CN=C(c2ccccc2)c2cc(Cl)ccc21 [Diazepame], the ED50 [1] was 2.4 ± 0.2 mg/kg, the ED50 ([2]; ip) was 0.3 ± 0.1 mg/kg and the ED50 ([2]; po) was 0.48 ± 0.12 mg/kg. For the same compound, the ED50 ([5]; po) was 5.9 ± 1.28 mg/kg, the minimal effective dose ([7]; ip) was 1 mg/kg and the minimal effective dose ([7]; po) was 1 mg/kg. For the same compound, the minimal effective dose ([8]; ip) was 1 mg/kg, the ED50 [9] was 0.6 ± 0.2 mg/kg and the ED50 [16] was 0.6 ± 0.2 mg/kg.
With CCN1CCCC1CNC(=O)c1cc(S(N)(=O)=O)ccc1OC (centres unmarked) [Sulpyride] the ED50 ([5]; ip, i/p) was 60.6 ± 16.6 mg/kg and the ED50 ([10]; mice, i/p) was 8.4 ± 1.3 mg/kg.
